# In publication PMC7181051, “Probing the Protein-Protein Interaction between the ATRXADD Domain and the Histone H3 Tail” (Molecules, 2020):
# Like-named read-outs stand apart in the source and are kept apart here. Where a SMILES comes first, the peptide text is derived from it. [ ]: non-standard residue; d: D form. Lys(Me3) = C[N+](C)(C)CCCC[C@H](N)C(=O)O
# Target: T1, ATRXADD (Homo sapiens, UniProt P46100)
# T1 construct: The pGEX-GP-2-ATRX ADD plasmid (Addgene plasmid #59698) [17] was transformed into BL21 cells for expression and purification; GST (N, cleaved yes); peptides GenScript #59698; host or cells: E. coli BL21
# T1 sequence (P46100 159-296 limits assumed): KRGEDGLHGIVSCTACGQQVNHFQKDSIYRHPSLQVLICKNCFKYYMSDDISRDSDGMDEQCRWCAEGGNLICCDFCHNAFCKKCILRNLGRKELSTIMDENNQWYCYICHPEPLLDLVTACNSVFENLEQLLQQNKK
# Assay: Fluorescence polarization (FP) displacement assay
# Assay type: binding
# Settings: for disruption of the H3:ATRXADD PPI in the FP assay, in words: truncated and modified H3 peptides
# [1] = disruption of H3_1-15K9me3-FAM (0.75 µM):ATRXADD (5 µM) PPI, PBS, highest concentration tested 100 µM, ND = no displacement, read-out: FP Assay IC50
SMILES,IC50 [1],"disruption of the H3:ATRXADD PPI in the FP assay, in words",IC50
C[C@H](N)C(=O)N[C@@H](CCCNC(=N)N)C(=O)N[C@H](C(=O)N[C@@H](CCCC[N+](C)(C)C)C(=O)N[C@@H](CCC(N)=O)C(=O)N[C@H](C(=O)N[C@@H](C)C(=O)O)[C@@H](C)O)[C@@H](C)O [Peptide H3_1-7K4me3] (H-ART[Lys(Me3)]QTA-OH),,,> 100 µM
C[C@@H](O)[C@H](NC(=O)[C@H](CCC(N)=O)NC(=O)[C@H](CCCCN)NC(=O)[C@@H](NC(=O)[C@@H](N)CCCNC(=N)N)[C@@H](C)O)C(=O)O [Peptide H3_2-6] (H-RTKQT-OH; N-terminus and C-terminus assumed),,inactive,> 100 µM
C[C@H](NC(=O)[C@@H](NC(=O)[C@H](CCC(N)=O)NC(=O)[C@H](CCCCN)NC(=O)[C@@H](N)[C@@H](C)O)[C@@H](C)O)C(=O)N[C@@H](CCCNC(=N)N)C(=O)O [Peptide H3_3-8] (H-TKQTAR-OH; N-terminus and C-terminus assumed),,inactive,> 100 µM
C[C@H](N)C(=O)N[C@@H](CCCNC(=N)N)C(=O)N[C@@H](CCCC[N+](C)(C)C)C(=O)N[C@@H](CO)C(=O)N[C@H](C(=O)O)[C@@H](C)O [Peptide H3_7-11K9me3] (H-AR[Lys(Me3)]ST-OH; N-terminus and C-terminus assumed),,inactive,> 100 µM

# More lines, main results first:
IC50 [1],SMILES,"disruption of the H3:ATRXADD PPI in the FP assay, in words",IC50
≥ 100 µM,C[C@H](N)C(=O)N[C@@H](CCCNC(=N)N)C(=O)N[C@H](C(=O)N[C@@H](CCCC[N+](C)(C)C)C(=O)N[C@@H](CCC(N)=O)C(=O)N[C@H](C(=O)N[C@@H](C)C(=O)N[C@@H](CCCNC(=N)N)C(=O)N[C@@H](CCCC[N+](C)(C)C)C(=O)N[C@@H](CO)C(=O)N[C@H](C(=O)O)[C@@H](C)O)[C@@H](C)O)[C@@H](C)O [H3_1-11K4me3K9me3],significantly reduced the activity,
> 100 µM,C[C@H](NC(=O)[C@@H](NC(=O)[C@H](CCC(N)=O)NC(=O)[C@H](CCCC[N+](C)(C)C)NC(=O)[C@@H](N)[C@@H](C)O)[C@@H](C)O)C(=O)N[C@@H](CCCNC(=N)N)C(=O)N[C@@H](CCCC[N+](C)(C)C)C(=O)N[C@@H](CO)C(=O)O [H3_3-10K4me3K9me3] (H-T[Lys(Me3)]QTAR[Lys(Me3)]S-OH; N-terminus and C-terminus assumed),,
> 100 µM,C[C@@H](O)[C@H](N)C(=O)N[C@@H](CCCCN)C(=O)N[C@@H](CCC(N)=O)C(=O)O [Peptide H3_3-5] (H-Thr-Lys-Gln-OH; N-terminus and C-terminus assumed),inactive,
> 100 µM,C[C@H](NC(=O)[C@@H](NC(=O)[C@H](CCC(N)=O)NC(=O)[C@H](CCCCN)NC(=O)[C@@H](N)[C@@H](C)O)[C@@H](C)O)C(=O)N[C@@H](CCCNC(=N)N)C(=O)N[C@@H](CCCC[N+](C)(C)C)C(=O)N[C@@H](CO)C(=O)N[C@H](C(=O)O)[C@@H](C)O [Peptide H3_3-11K9me3] (H-TKQTAR[Lys(Me3)]ST-OH; N-terminus and C-terminus assumed),completely abolished activity,
